How the values were obtained:
[1] = target: T1, TEC (Homo sapiens, UniProt P42680); experiment: Kinase activity assay, TEC
T1 sequence (P42680 1-631): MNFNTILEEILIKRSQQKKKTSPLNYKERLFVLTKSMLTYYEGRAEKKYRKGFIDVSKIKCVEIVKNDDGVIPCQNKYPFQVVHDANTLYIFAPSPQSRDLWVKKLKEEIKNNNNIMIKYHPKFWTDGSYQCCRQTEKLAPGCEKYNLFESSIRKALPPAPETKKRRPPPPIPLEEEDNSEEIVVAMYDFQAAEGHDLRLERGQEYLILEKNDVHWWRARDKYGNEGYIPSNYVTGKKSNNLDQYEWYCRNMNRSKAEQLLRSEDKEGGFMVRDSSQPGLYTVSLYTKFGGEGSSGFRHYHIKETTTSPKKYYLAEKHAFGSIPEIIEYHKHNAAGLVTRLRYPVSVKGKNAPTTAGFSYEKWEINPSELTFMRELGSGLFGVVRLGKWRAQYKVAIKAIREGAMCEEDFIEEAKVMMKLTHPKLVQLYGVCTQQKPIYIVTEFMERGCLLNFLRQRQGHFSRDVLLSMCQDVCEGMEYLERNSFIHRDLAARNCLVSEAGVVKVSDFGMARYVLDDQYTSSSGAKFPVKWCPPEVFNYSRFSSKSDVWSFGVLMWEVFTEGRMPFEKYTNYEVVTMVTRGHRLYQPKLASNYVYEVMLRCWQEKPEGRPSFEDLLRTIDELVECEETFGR

[2] = target: C-Raf (Homo sapiens, UniProt P04049); experiment: Kinase activity assay, C-Raf
C-Raf, sequence (P04049 whole entry): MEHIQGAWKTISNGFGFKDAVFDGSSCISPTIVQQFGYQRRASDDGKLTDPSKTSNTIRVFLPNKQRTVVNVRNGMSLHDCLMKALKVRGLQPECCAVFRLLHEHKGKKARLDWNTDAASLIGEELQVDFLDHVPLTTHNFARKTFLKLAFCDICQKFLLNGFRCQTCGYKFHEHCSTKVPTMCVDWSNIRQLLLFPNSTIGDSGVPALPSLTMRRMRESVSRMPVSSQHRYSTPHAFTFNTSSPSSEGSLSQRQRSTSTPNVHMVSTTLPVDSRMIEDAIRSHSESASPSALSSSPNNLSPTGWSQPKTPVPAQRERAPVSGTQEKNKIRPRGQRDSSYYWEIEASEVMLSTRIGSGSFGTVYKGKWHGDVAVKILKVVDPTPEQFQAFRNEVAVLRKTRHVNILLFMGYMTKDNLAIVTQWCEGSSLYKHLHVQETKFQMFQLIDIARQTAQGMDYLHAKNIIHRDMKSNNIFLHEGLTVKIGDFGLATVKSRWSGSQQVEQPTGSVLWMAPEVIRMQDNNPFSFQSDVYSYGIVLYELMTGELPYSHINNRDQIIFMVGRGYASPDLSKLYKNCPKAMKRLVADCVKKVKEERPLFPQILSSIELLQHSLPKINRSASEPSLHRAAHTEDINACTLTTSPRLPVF

[3] = target: MAP4K4 (Homo sapiens, UniProt O95819); experiment: Kinase activity assay, MAP4K4
[4] = target: Src (Homo sapiens, UniProt P12931); experiment: Kinase activity assay, Src
Src, sequence (P12931 whole entry): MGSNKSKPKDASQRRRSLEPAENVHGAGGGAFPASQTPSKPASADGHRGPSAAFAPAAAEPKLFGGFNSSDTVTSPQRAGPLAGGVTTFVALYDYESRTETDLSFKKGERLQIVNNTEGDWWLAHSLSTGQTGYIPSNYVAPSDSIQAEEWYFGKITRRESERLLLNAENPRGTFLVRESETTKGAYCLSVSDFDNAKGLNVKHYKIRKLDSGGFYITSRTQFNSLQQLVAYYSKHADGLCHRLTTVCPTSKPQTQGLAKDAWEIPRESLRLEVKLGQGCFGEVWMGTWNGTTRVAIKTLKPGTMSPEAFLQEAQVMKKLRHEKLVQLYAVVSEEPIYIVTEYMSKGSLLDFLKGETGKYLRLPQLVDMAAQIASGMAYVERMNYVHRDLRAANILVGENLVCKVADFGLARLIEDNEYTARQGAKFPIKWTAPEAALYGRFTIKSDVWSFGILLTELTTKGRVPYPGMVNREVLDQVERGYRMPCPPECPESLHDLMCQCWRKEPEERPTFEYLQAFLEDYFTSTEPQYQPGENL

[5] = target: Kit (Homo sapiens, UniProt P10721); experiment: Kinase activity assay, Kit
Kit, sequence (P10721 26-976): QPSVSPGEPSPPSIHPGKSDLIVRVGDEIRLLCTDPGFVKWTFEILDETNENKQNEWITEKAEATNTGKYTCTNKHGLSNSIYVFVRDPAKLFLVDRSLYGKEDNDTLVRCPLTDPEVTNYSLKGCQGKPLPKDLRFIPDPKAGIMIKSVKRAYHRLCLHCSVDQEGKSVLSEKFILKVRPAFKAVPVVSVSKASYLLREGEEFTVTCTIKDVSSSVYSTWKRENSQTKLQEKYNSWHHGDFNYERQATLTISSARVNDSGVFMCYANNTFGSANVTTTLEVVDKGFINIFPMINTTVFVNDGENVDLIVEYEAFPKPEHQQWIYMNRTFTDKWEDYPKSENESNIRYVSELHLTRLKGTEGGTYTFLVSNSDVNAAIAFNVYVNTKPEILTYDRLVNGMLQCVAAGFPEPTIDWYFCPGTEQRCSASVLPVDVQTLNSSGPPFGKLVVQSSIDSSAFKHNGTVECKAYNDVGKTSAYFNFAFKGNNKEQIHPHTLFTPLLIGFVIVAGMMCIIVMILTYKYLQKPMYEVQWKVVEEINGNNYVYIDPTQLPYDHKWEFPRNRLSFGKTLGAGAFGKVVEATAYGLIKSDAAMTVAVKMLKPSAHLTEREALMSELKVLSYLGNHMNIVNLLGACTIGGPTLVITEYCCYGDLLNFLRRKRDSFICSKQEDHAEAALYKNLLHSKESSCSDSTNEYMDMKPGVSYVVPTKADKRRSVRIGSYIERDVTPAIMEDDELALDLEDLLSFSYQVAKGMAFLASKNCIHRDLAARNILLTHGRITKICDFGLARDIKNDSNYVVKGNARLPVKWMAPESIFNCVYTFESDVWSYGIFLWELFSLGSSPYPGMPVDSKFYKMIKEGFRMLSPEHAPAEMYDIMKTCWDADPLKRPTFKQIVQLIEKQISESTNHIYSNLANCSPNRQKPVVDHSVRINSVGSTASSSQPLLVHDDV

[6] = target: B-Raf (Homo sapiens, UniProt P15056); experiment: Kinase activity assay, B-Raf; type: biochemical; settings: read-out: activity toward kinase B-Raf, IC50
[7] = target: Kdr (Homo sapiens, UniProt P35968); experiment: Kinase activity assay, Kdr
Kdr, sequence (P35968 20-1356): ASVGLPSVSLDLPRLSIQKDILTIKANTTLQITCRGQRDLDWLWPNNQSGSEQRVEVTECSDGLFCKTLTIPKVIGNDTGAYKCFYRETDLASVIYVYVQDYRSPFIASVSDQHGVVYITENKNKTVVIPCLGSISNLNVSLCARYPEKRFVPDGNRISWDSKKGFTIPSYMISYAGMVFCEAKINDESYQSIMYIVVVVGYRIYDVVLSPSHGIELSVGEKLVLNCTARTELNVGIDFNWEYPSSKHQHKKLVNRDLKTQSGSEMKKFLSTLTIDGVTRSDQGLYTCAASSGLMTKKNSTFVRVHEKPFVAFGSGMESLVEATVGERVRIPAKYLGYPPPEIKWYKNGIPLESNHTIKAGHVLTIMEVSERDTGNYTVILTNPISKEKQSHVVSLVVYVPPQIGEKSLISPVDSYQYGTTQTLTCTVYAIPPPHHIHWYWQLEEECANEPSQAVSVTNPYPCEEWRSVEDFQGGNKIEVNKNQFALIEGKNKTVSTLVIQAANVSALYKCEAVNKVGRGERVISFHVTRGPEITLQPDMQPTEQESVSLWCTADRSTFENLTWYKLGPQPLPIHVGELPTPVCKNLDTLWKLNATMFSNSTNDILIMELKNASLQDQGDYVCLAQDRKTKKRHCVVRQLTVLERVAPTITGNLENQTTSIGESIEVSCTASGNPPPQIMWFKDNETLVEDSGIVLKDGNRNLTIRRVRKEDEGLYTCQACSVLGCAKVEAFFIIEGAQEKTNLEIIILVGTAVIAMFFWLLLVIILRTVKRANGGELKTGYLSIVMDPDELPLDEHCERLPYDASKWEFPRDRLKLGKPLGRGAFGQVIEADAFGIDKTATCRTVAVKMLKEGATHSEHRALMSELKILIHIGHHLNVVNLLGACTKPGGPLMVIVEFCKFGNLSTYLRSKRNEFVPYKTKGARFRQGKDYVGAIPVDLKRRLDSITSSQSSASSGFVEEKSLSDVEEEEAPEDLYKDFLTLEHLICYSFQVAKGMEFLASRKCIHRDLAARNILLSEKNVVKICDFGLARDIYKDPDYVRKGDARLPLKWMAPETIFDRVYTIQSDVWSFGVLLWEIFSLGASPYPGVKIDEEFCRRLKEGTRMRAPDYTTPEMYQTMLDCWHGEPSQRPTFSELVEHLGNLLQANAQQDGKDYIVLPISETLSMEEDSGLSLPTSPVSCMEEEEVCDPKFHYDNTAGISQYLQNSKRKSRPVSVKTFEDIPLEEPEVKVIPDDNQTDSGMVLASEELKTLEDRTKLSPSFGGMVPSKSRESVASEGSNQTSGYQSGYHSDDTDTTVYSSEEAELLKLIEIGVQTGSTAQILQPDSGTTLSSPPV

[8] = target: B-Raf V600E (Homo sapiens, UniProt P15056, V600E); experiment: Kinase activity assay, B-Raf V600E; type: biochemical; settings: read-out: activity toward kinase B-Raf V600E, IC50
[9] = target: Fms (Homo sapiens, UniProt P07333); experiment: Kinase activity assay, Fms
Fms, sequence (P07333 20-972): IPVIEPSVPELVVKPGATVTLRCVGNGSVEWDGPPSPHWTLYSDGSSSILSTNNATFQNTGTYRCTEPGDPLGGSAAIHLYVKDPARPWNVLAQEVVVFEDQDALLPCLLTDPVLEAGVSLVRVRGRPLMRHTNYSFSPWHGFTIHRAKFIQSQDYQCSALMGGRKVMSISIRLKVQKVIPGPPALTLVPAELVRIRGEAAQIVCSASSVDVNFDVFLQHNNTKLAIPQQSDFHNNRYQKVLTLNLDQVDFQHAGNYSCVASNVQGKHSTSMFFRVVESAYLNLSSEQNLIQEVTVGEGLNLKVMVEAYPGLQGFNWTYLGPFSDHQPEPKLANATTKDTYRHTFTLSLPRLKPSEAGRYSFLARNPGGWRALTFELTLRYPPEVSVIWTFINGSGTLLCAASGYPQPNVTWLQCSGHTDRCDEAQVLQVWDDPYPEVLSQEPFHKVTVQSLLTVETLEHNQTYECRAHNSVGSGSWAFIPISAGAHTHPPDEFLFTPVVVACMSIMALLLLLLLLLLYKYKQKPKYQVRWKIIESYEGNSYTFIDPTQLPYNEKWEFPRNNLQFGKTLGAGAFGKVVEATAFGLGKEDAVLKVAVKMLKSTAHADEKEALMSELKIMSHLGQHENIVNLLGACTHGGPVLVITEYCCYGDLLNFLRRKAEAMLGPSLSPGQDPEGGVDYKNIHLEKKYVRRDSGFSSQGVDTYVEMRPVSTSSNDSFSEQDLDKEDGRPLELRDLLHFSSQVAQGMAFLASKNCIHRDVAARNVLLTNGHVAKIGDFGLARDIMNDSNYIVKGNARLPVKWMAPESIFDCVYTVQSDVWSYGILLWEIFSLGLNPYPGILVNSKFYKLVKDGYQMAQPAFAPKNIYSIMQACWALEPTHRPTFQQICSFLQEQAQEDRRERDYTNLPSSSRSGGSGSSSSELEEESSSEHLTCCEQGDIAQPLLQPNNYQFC

Measured: IC50

COc1ccnc2[nH]cc(C(=O)c3c(F)ccc(NS(=O)(=O)c4ccccc4F)c3F)c12 [P-2021, N-[2,4-Difluoro-3-(4-methoxy-1H-pyrrolo[2,3-b]pyridine-3-carbonyl)-phenyl]-2-fluoro-benzenesulfonamide]
not listed: [9]
≤ 10 µM: all other assays above

COc1ccnc2[nH]cc(C(=O)c3c(F)ccc(NS(=O)(=O)c4cccc(F)c4)c3F)c12 [P-2023, N-[2,4-Difluoro-3-(4-methoxy-1H-pyrrolo[2,3-b]pyridine-3-carbonyl)-phenyl]-3-fluoro-benzenesulfonamide]
not listed: [9]
≤ 10 µM: all other assays above

Cc1cnc2[nH]cc(C(=O)c3c(F)ccc(NS(=O)(=O)c4c(F)cccc4F)c3F)c2c1 [P-2024, N-[2,4-Difluoro-3-(5-methyl-1H-pyrrolo[2,3-b]pyridine-3-carbonyl)-phenyl]-2,6-difluoro-benzenesulfonamide]
not listed: [9]
≤ 10 µM: all other assays above

N#Cc1cnc2[nH]cc(C(=O)c3c(F)ccc(NS(=O)(=O)c4c(F)cccc4F)c3F)c2c1 [P-2029, N-[3-(5-Cyano-1H-pyrrolo[2,3-b]pyridine-3-carbonyl)-2,4-difluoro-phenyl]-2,6-difluoro-benzenesulfonamide]
not listed: [9]
≤ 10 µM: all other assays above

N#Cc1cnc2[nH]cc(C(=O)c3c(F)ccc(NS(=O)(=O)c4ccc(F)cc4F)c3F)c2c1 [P-2030, N-[3-(5-Cyano-1H-pyrrolo[2,3-b]pyridine-3-carbonyl)-2,4-difluoro-phenyl]-2,4-difluoro-benzenesulfonamide]
not listed: [9]
≤ 10 µM: all other assays above

COc1ccnc2[nH]cc(C(=O)c3c(F)ccc(NS(=O)(=O)c4c(F)cccc4F)c3F)c12 [P-2031, N-[2,4-Difluoro-3-(4-methoxy-1H-pyrrolo[2,3-b]pyridine-3-carbonyl)-phenyl]-2,6-difluoro-benzenesulfonamide]
not listed: [9]
≤ 10 µM: all other assays above

Cc1cnc2[nH]cc(C(=O)c3c(F)ccc(NS(=O)(=O)c4ccccn4)c3F)c2c1 [P-2070, Pyridine-2-sulfonic acid [2,4-difluoro-3-(5-methyl-1H-pyrrolo[2,3-b]pyridine-3-carbonyl)-phenyl]-amide]
not listed: [5] | [9]
≤ 10 µM: all other assays above

O=C(c1c(F)ccc(NS(=O)(=O)c2cccnc2)c1F)c1c[nH]c2ncc(Cl)cc12 [P-2071, Pyridine-3-sulfonic acid [3-(5-chloro-1H-pyrrolo[2,3-b]pyridine-3-carbonyl)-2,4-difluoro-phenyl]-amide]
≤ 10 µM: [1] | [3] | [4] | [5]

Cn1cc(-c2cnc3[nH]cc(C(=O)c4cccc(NS(=O)(=O)c5ccc(C(F)(F)F)cc5)c4)c3c2)cn1 [P-2135, N-{3-[5-(1-Methyl-1H-pyrazol-4-yl)-1H-pyrrolo[2,3-b]pyridine-3-carbonyl]-phenyl}-4-trifluoromethyl-benzenesulfonamide]
≤ 10 µM: [1] | [9] | [5] | [7] | [8]

CCCS(=O)(=O)Nc1ccc(F)c(C(=O)c2c[nH]c3ncc(C(=O)OCC)cc23)c1F [P-2207, 3-[2,6-Difluoro-3-(propane-1-sulfonylamino)-benzoyl]-1H-pyrrolo[2,3-b]pyridine-5-carboxylic acid ethyl ester]
not listed: [2] | [3] | [4]
≤ 10 µM: all other assays above

CCCC(C)S(=O)(=O)Nc1ccc(F)c(C(=O)c2c[nH]c3ncc(OC)cc23)c1F (stereo not shown) [P-2309, Pentane-2-sulfonic acid [2,4-difluoro-3-(5-methoxy-1H-pyrrolo[2,3-b]pyridine-3-carbonyl)-phenyl]-amide]
not listed: [2] | [6] | [9]
≤ 10 µM: all other assays above

CCC(C)S(=O)(=O)Nc1ccc(F)c(C(=O)c2c[nH]c3ncc(Cl)cc23)c1F (stereo not shown) [P-2310, Butane-2-sulfonic acid [3-(5-chloro-1H-pyrrolo[2,3-b]pyridine-3-carbonyl)-2,4-difluoro-phenyl]-amide]
not listed: [9]
≤ 10 µM: all other assays above

CCC(C)S(=O)(=O)Nc1ccc(F)c(C(=O)c2c[nH]c3ncc(C)cc23)c1F (stereo not shown) [P-2312, Butane-2-sulfonic acid [2,4-difluoro-3-(5-methyl-1H-pyrrolo[2,3-b]pyridine-3-carbonyl)-phenyl]-amide]
not listed: [5] | [6] | [9]
≤ 10 µM: all other assays above

COc1cnc2[nH]cc(C(=O)c3c(F)ccc(NS(=O)(=O)C4CCCCC4)c3F)c2c1 [P-2355, Cyclohexanesulfonic acid [2,4-difluoro-3-(5-methoxy-1H-pyrrolo[2,3-b]pyridine-3-carbonyl)-phenyl]-amide]
not listed: [9]
≤ 10 µM: all other assays above

COc1cnc2[nH]cc(C(=O)c3c(F)ccc(NS(=O)(=O)C4CCCC4)c3F)c2c1 [P-2356, Cyclopentanesulfonic acid [2,4-difluoro-3-(5-methoxy-1H-pyrrolo[2,3-b]pyridine-3-carbonyl)-phenyl]-amide]
not listed: [9]
≤ 10 µM: all other assays above

O=C(c1c(F)ccc(NS(=O)(=O)C2CCCCC2)c1F)c1c[nH]c2ncc(Cl)cc12 [P-2357, Cyclohexanesulfonic acid [3-(5-chloro-1H-pyrrolo[2,3-b]pyridine-3-carbonyl)-2,4-difluoro-phenyl]-amide]
not listed: [9]
≤ 10 µM: all other assays above

Cc1cnc2[nH]cc(C(=O)c3c(F)ccc(NS(=O)(=O)N(C)C)c3F)c2c1 [P-2382, N,N-dimethylamino-sulfonic acid [2,4-difluoro-3-(5-methyl-1H-pyrrolo[2,3-b]pyridine-3-carbonyl)-phenyl]-amide]
not listed: [5] | [9]
≤ 10 µM: all other assays above

Cc1cnc2[nH]cc(C(=O)c3cc(NS(=O)(=O)C4CCCCC4)ccc3F)c2c1 [P-2443, Cyclohexanesulfonic acid [4-fluoro-3-(5-methyl-1H-pyrrolo[2,3-b]pyridine-3-carbonyl)-phenyl]-amide]
≤ 10 µM: [1] | [9] | [3] | [5] | [7]

CCCS(=O)(=O)Nc1cccc(S(=O)(=O)c2c[nH]c3ncc(Cl)cc23)c1 [P-2467, Propane-1-sulfonic acid [3-(5-chloro-1H-pyrrolo[2,3-b]pyridine-3-sulfonyl)-phenyl]-amide]
≤ 10 µM: [1] | [2] | [3] | [8]

— patent publication US20120122860A1, “SOLID FORMS OF SULFONAMIDES AND AMINO ACIDS” (Plexxikon, Inc., priority 2009, published 2012)
